In paper PMC4014702, “Synthesis, In Vitro and In Vivo Evaluation of the N-ethoxycarbonylmorpholine Ester of Diclofenac as a Prodrug” (Pharmaceuticals, 2014):
Counter-ions that a name gives are not always drawn.

Experiments:
stomach (mucosal damage) = assay: In vivo ulcerogenicity study in rats; set-up: species or system male Sprauge-Dawley rats; conditions: for number of lesions / ulcer score: single equimolar dose (diclofenac sodium 100 mg/kg, prodrug 140 mg/kg); for number of lesions: average, for the prodrug punctiform lesions; for ulcer score: sacrificed after 17 h
Procedure: The ulceroginicity of diclofenac sodium and its prepared prodrug 2 were evaluated. Three groups (six animals each) of male Sprauge-Dawley rats (150–200 gm) were fasted for 8 h prior to administration of single equimolar doses of diclofenac sodium (100 mg/kg), its prodrug (140 mg/kg), or vehicle. Free access to food and water were provided throughout the experiment. […] The stomach of the rats was dissected out of the body, and stomach content was emptied and washed with saline. The stomach was then opened and wiped with a clean swap dipped in saline. The degree of mucosal damage was assessed using a 4× binocular magnifier. The severity of the damage was assessed according to a scoring system where the presence of <5 punctiforms with no ulcers was given the score of zero. A punctiform was defined as a lesion of less than 1 mm. If >5 punctiforms were present with no ulcer, a score of 1 was given. If 1–5 small ulcers (1–2 mm in diameter) were observed, a score of 2 was given. If >5 small ulcers or one large ulcer (>2 mm in diameter) was present, a score of […] was given. If >1 large ulcer was observed, a score of 4 was given. The scores were averaged and the mean score was tabulated as ulcerogenicity index for the drugs under investigation.

[1] = Hydrolysis kinetics in aqueous buffer solution; assay type: physicochemical; conditions: about 37 °C
Procedure: (§1) The HPLC analysis was performed using LaChrom Merck Hitachi system that consists of a D-7000 interface, L-7200 diode array detector, pump L-7150 and D-7000HSM software (Schaumburg, IL, USA). The UV detector was set at 280 nm wave length. The HPLC column was an Agela unisol-C18, 5 micron 4.6 × 150. Mobile phase was 80% methanol, 20% water. To each litre, 2 mL acetic acid were added. The mobile phase was pumped at flow rate 1.5 mL/min. The retention times were: 5.17 min 6.19 min and 7.15 min for 2-hydroxyethyldiclofenac, diclofenac sodium and the morpholine prodrug, respectively (Figure 2). The analytical method was fully validated.
The prodrug under investigation was incubated in 0.1 N HCl (pH 1.0) and phosphate buffer (pH 7.4). The formed solutions were kept in a shaking water bath at about 37 °C for eight h. At appropriate intervals, samples (100 µL) were analyzed using the HPLC method described earlier.

[2] = Hydrolysis kinetics in human plasma; assay type: in vitro ADME; conditions: 37 ± 0.3 °C
Procedure: as §1
The prodrug under investigations was incubated in human plasma using a shaking water bath, which was set at 37 ± 0.3 °C. An amount of 25 µL of 1.0 mg/mL stock solution of the prodrug under investigation was added to 5 mL of the incubated plasma. At appropriate time points, samples of 100 μL were withdrawn and deproteinized by adding equal volumes of acetonitrile. The formed mixture was mixed on a vortex then centrifuge at 2,500 rpm for 10 min. The clear supernatant was analyzed using the HPLC method.

| Compound | lesions larger than 2 mm (stomach (mucosal damage); single dose diclofenac sodium 100 mg/kg, 17 h) | number of lesions (stomach (mucosal damage); 17 h) | ulcer score (stomach (mucosal damage)) | half-life ([1]; pH 1 (0.1 N HCl)) | half-life ([1]; pH 7.4 (phosphate buffer)) | half-life at 5 µg/mL [2] |
| --- | --- | --- | --- | --- | --- | --- |
| O=C(O)Cc1ccccc1Nc1c(Cl)cccc1Cl [Compound 1, 2-[(2,6-dichloro-phenyl])amino]benzeneacetic acid sodium salt] | six | 82 | four | – | – | – |
| O=C(Cc1ccccc1Nc1c(Cl)cccc1Cl)OCCOC(=O)N1CCOCC1 [Compound 2] | – | less than five | zero | 480 min | 2820 min | 21 min |
